Source: ChEMBL document CHEMBL3745696, “Synthesis and cytotoxic activity of novel hexahydropyrrolo[2,3-b]indole imidazolium salts” (Bioorg Med Chem Lett, 2016)

Assays:
[1] = Cytotoxicity against human HL60 cells by MTT assay; assay type: functional, cell-based; conditions: HL-60
MCF7 [2] = assay: Potency index, ratio IC50 of cisplatin to IC50 of compound for cytotoxicity against human MCF7 cells; assay type: functional
[3] = Cytotoxicity against human SMMC7721 cells by MTT assay; assay type: functional, cell-based; conditions: SMMC-7721
A549 [4] = assay: Cytotoxicity against human A549 cells by MTT assay; assay type: functional, cell-based
SW480 [5] = assay: Cytotoxicity against human SW480 cells by MTT assay; assay type: functional, cell-based
MCF7 [6] = assay: Cytotoxicity against human MCF7 cells by MTT assay; assay type: functional, cell-based
[7] = Potency index, ratio IC50 of cisplatin to IC50 of compound for cytotoxicity against human SMMC7721 cells; assay type: functional, SMMC-7721
A549 [8] = assay: Potency index, ratio IC50 of cisplatin to IC50 of compound for cytotoxicity against human A549 cells; assay type: functional
SW480 [9] = assay: Potency index, ratio IC50 of cisplatin to IC50 of compound for cytotoxicity against human SW480 cells; assay type: functional

| SMILES | IC50 [1] [µM] | Ratio IC50 (MCF7 [2]) | IC50 [3] [µM] | IC50 (A549 [4]) [µM] | IC50 (SW480 [5]) [µM] | IC50 (MCF7 [6]) [µM] | Ratio IC50 [7] | Ratio IC50 (A549 [8]) | Ratio IC50 (SW480 [9]) |
| --- | --- | --- | --- | --- | --- | --- | --- | --- | --- |
| Cc1n(CC(=O)N2CCC3(C)c4ccccc4N(Cc4ccccc4)C23)c2ccccc2[n+]1Cc1ccc2ccccc2c1.[Br-] (centres undefined) | 1.38 | 7.2 | 1.8 | 6.26 | 1.64 | 1.46 | – | – | – |
| CC12CCN(C(=O)Cn3cnc4ccccc43)C1N(Cc1ccccc1)c1ccccc12 (centres undefined) | > 20 | – | > 20 | > 20 | > 20 | > 20 | – | – | – |
| Cc1cc2c(cc1C)[n+](CC(=O)c1ccc(Br)cc1)cn2CC(=O)N1CCC2(C)c3ccccc3N(Cc3ccccc3)C12 (centres undefined) | 1.55 | – | 6.22 | 8.01 | 1.68 | 2.78 | – | – | – |
| CN1c2ccccc2C2(C)CCN(C(=O)Cn3c[n+](Cc4ccc(Br)cc4)c4ccccc43)C12 (centres undefined) | 6.96 | – | > 20 | > 20 | > 20 | 8.93 | – | – | – |
| Cc1ccc(C[n+]2cn(CC(=O)N3CCC4(C)c5ccccc5N(C)C34)c3cc(C)c(C)cc32)cc1 (centres undefined) | 1.52 | – | 4.52 | 10.5 | 7.57 | 5.79 | – | – | – |
| CC12CCN(C(=O)Cn3c[n+](Cc4ccc(Br)cc4)c4ccccc43)C1N(Cc1ccccc1)c1ccccc12 (centres undefined) | 1.42 | – | 7.53 | 7.59 | 7.43 | 3.87 | – | – | – |
| Cc1n(CC(=O)N2CCC3(C)c4ccccc4N(C)C23)c2ccccc2[n+]1CC(=O)c1ccc(Br)cc1 (centres undefined) | > 20 | – | > 20 | > 20 | > 20 | > 20 | – | – | – |
| Cc1cc2c(cc1C)[n+](Cc1ccccc1Br)cn2CC(=O)N1CCC2(C)c3ccccc3N(Cc3ccccc3)C12.[Br-] (centres undefined) | 1.27 | – | 1.72 | 2.68 | 1.44 | 1.78 | 4.7 | 2.6 | 6.2 |
| CC12CCNC1N(Cc1ccccc1)c1ccccc12 (centres undefined) | > 20 | – | > 20 | > 20 | > 20 | > 20 | – | – | – |
| CN1c2ccccc2C2(C)CCN(C(=O)Cn3c[n+](Cc4ccccc4Br)c4ccccc43)C12 (centres undefined) | 5.07 | – | > 20 | > 20 | > 20 | 14 | – | – | – |
| Cc1ccc(C[n+]2cn(CC(=O)N3CCC4(C)c5ccccc5N(Cc5ccccc5)C34)c3cc(C)c(C)cc32)cc1 (centres undefined) | 1.23 | – | 1.74 | 4.84 | 1.77 | 1.86 | – | – | – |
| Cc1nccn1CC(=O)N1CCC2(C)c3ccccc3N(Cc3ccccc3)C12 (centres undefined) | > 20 | – | > 20 | > 20 | > 20 | > 20 | – | – | – |
| COc1ccc(C(=O)C[n+]2ccn(CC(=O)N3CCC4(C)c5ccccc5N(C)C34)c2C)cc1 (centres undefined) | > 20 | – | > 20 | > 20 | > 20 | > 20 | – | – | – |
| Cc1n(CC(=O)N2CCC3(C)c4ccccc4N(C)C23)cc[n+]1CC(=O)c1ccccc1 (centres undefined) | > 20 | – | > 20 | > 20 | > 20 | > 20 | – | – | – |
| Cc1n(CC(=O)N2CCC3(C)c4ccccc4N(C)C23)cc[n+]1CC(=O)c1ccc2ccccc2c1 (centres undefined) | > 20 | – | > 20 | > 20 | > 20 | > 20 | – | – | – |
| CN1c2ccccc2C2(C)CCNC12 (centres undefined) | > 20 | – | > 20 | > 20 | > 20 | > 20 | – | – | – |
| COc1ccc(C(=O)C[n+]2cn(CC(=O)N3CCC4(C)c5ccccc5N(Cc5ccccc5)C34)c3ccccc32)cc1 (centres undefined) | 5.94 | – | 10 | > 20 | 8.35 | 7.83 | – | – | – |
| CN1c2ccccc2C2(C)CCN(C(=O)Cn3cc[n+](Cc4ccc(Br)cc4)c3)C12 (centres undefined) | > 20 | – | > 20 | > 20 | > 20 | > 20 | – | – | – |
| Cc1ccc(C[n+]2c(C)n(CC(=O)N3CCC4(C)c5ccccc5N(C)C34)c3ccccc32)cc1 (centres undefined) | 2.25 | – | 8.03 | > 20 | > 20 | 10.8 | – | – | – |
| CN1c2ccccc2C2(C)CCN(C(=O)Cn3cc[n+](CC(=O)c4ccc(Br)cc4)c3)C12 (centres undefined) | > 20 | – | > 20 | > 20 | > 20 | > 20 | – | – | – |
| Cc1cc2c(cc1C)[n+](CC(=O)c1ccccc1)cn2CC(=O)N1CCC2(C)c3ccccc3N(C)C12 (centres undefined) | 8.03 | – | > 20 | > 20 | > 20 | 13.4 | – | – | – |
| Cc1n(CC(=O)N2CCC3(C)c4ccccc4N(Cc4ccccc4)C23)c2ccccc2[n+]1Cc1ccccc1Br (centres undefined) | 1.33 | – | 2.27 | 7.34 | 4.62 | 2.5 | – | – | – |
| CN1c2ccccc2C2(C)CCN(C(=O)Cn3c[n+](Cc4ccc5ccccc5c4)c4ccccc43)C12 (centres undefined) | 2.8 | – | 7.45 | 14.1 | 7.95 | 6.86 | – | – | – |
| Cc1n(CC(=O)N2CCC3(C)c4ccccc4N(Cc4ccccc4)C23)cc[n+]1CC(=O)c1ccc2ccccc2c1 (centres undefined) | 2.2 | – | 4.79 | 11.2 | 7.78 | 5.67 | – | – | – |
| CN1c2ccccc2C2(C)CCN(C(=O)Cn3cc[n+](CC(=O)c4ccc5ccccc5c4)c3)C12 (centres undefined) | > 20 | – | > 20 | > 20 | > 20 | > 20 | – | – | – |
| Cc1cc2c(cc1C)[n+](Cc1ccc3ccccc3c1)cn2CC(=O)N1CCC2(C)c3ccccc3N(Cc3ccccc3)C12 (centres undefined) | 1.21 | – | 2.27 | 4.8 | 1.76 | 1.68 | – | – | – |
